Where two headings read alike, the source gives them in different places.
Columns and labels:
[1] = target: human T-type calcium channel (Homo sapiens, UniProt O95180); test: cell-based
Description: A T-type calcium channel inhibitory action of sophoraflavanone G was measured by a whole-cell patch method using a human renal cell-derived cell line: […] cell forced to express a human T-type calcium channel.
In the whole-cell patch method, a barium current passing as an inward current was measured in a potential jump from −80 mV to −20 mV with the holding potential set to −80 mV using, as an external solution and an internal solution, ones having the compositions shown below. Here, for eliminating influences of a high-threshold-activated-type calcium channel, a value obtained by subtracting from a peak current a current 150 ms after the start of stimulation was used as a T-current for data analysis.
External Solution Composition
Aqueous solution containing the following: 97 mM N-methyl-D-glucamine (NMDG);
10 mM 4-(2-hydroxyethyl)-1-piperazine ethanesulfonic acid (HEPES);
40 mM tetraethylammonium chloride (TEA-Cl); and
Internal Solution Composition
Aqueous solution containing the following:
5 mM glycol ether diamine tetraacetic acid (EGTA)
In FIG. 1, the data are shown as a ratio (%) of a T-current at addition of a compound to a T-current at addition of a solvent (DMSO).
Except that sophoraflavanone G was replaced by 6-prenylnaringenin, the same procedure as in Example 1 was carried out to measure a T-type calcium channel inhibitory action of […].
Except that sophoraflavanone G was replaced by 8-prenylnaringenin, the same procedure as in Example 1 was carried out to measure a T-type calcium channel inhibitory action of […].
These […] values are values calculated by GraphPad Prism® (GraphPad Software, Inc.) using the results of Examples 1 to 3.

[2] = tested on: NaHS-induced hyperalgesia; test: Action on NaHS-induced hyperalgesia, up-and-down method using a von Frey filament; assay type: in vivo; settings: male ddY mouse; for Action on NaHS-induced hyperalgesia (in words): paw sole administration
Description: Into the paw sole of a male ddY mouse, 0.1 nmol/paw (volume: 10 μL/paw) of NaHS (sodium hydrogen sulfide) was administered alone, […], and an action of sophoraflavanone G on NaHS-induced hyperalgesia was measured by an up-and-down method using a von Frey filament.
Here, NaHS (sodium hydrogen sulfide) is used as a H2S donor. H2S is a hyperalgesia-inducing substance which is involved in information transmission of pain through a Cav3.2 T-type calcium channel (see Kawabata A. et al. Hydrogen sulfide as a novel nociceptive messenger. Pain. 2007 November; 132(1-2): 74-81. Epub 2007 Mar. 7.).
Except that 6-prenylnaringenin was used in place of sophoraflavanone G, the same procedure as in Example 4 was carried out to measure an action of 6-prenylnaringenin on NaHS-induced hyperalgesia.
Except that 8-prenylnaringenin was used in place of sophoraflavanone G, the same procedure as in Example 4 was carried out to measure an action of 8-prenylnaringenin on NaHS-induced hyperalgesia.

L-type Ca2+ channel = target: T1, L-type Ca2+ channel (Rattus norvegicus, UniProt P22002); test: K50-induced contraction in a ring preparation of a rat aorta (endothelium removed); assay type: cell-based; settings: for Selectivity T-type over L-type calcium channel (in words): conclusion from Examples 1-3 and 7-9; for inhibition at 0.001 µM / inhibition at 0.003 µM / inhibition at 0.01 µM / inhibition at 0.03 µM / inhibition at 0.1 µM / inhibition at 0.3 µM / inhibition at 1 µM / inhibition at 3 µM: read-out: Inhibitory rate (%) on contraction by K50; for Action on L-type calcium channel (in words): specimen pre-contracted by K50, up to 3 μM
T1 construct: A 1 mm-wide ring preparation was prepared from the thoracic aorta; from tissue; host or cells: thoracic aorta ring preparation (endothelium removed) of male Wistar rats
Description: For the experiment, 7 to 10 week-old male Wistar rats (Japan SLC, Inc., Shizuoka, Japan) were used. These experimental animals were bred in a chamber with a 12-hour light-dark cycle maintained at a temperature of about 24° C. while they were allowed to freely take tap water and a solid feed (Oriental Yeast Co., Ltd., Tokyo, Japan).
The rats were caused to hemorrhage to death by cutting the carotid artery under anesthesia, and the thoracic aorta was extracted. Connective tissues and fat were removed from the thoracic aorta in a cooled modified Kreb's liquid. A 1 mm-wide ring preparation was prepared from the thoracic aorta, and the lumen of the specimen was rubbed with rubber to remove the endothelium.
Two 100 μm tungsten wires were inserted into the lumen of the 1 mm-wide ring preparation, and the ring preparation was transferred to a liquid bath with a volume of 10 mL. […] The other ends of tungsten wires inserted into the lumen of the ring preparation were fixed to a tension transducer, and a change in tension of the specimen was isometrically measured. Signals from the tension transducer passed through a blood pressure amplifier to be recorded by a pen recorder. An initial stretching tension of 1 g was applied in a normal Kreb's liquid, and the specimen was equilibrated for 1 hour, and then caused to contract once by a 10^−6 M phenylephrine solution. This procedure was necessary for obtaining stable results. At the end of the experiment, verapamil (Vera) (10^−5 M) and papaverine (10^−4 M) were added to completely relax the specimen. The level at this time was set to 0 for all the measurements of a change in tension.
The reagents used were as follows. • Normal Kreb's liquid: NaCl (118 mM), KCl (4.7 mM), CaCl2 (2.5 mM), MgCl2 (1.2 mM), NaHCO3 (25 mM), KH2PO4 (1.2 mM) and glucose (10 mM) were diluted with H2O to 1 L, and ventilated for 10 minutes with a mixed gas of 95% of O2 and 5% of CO2, and 2.5 mL of a 1 M CaCl2 solution was then added. • Kreb's liquid (K50): NaCl (73.9 mM), KCl (48.8 mM), CaCl2 (2.5 mM), MgCl2 (1.2 mM), NaHCO3 (25 mM), KH2PO4 (1.2 mM) and glucose (10 mM) were diluted with H2O to 1 L, and ventilated for 10 minutes with a mixed gas of 95% of O2 and 5% of CO2, and 2.5 mL of a 1 M CaCl2 solution was then added. • Acetylcholine hydrochloride (Ach, manufactured by Sigma) • Verapamil hydrochloride (Vera, manufactured by Eisai Co., Ltd. (Tokyo)) • Papaverine hydrochloride (manufactured by Sigma) 5. Results
Thereafter, the specimen was washed three times with the Normal Kreb's liquid, and to the specimen caused to pre-contract by the Kreb's liquid (K50) containing 50 mM potassium ions, 1 μL of 1 μM of sophoraflavanone G (final concentration: 0.001 μM) dissolved in DMSO, 2 μL of 1 μM of the sophoraflavanone G (final concentration: 0.003 μM), 7 μL of 1 μM of the sophoraflavanone G (final concentration: 0.01 μM), 2 μL of 10 μM of the sophoraflavanone G (final concentration: 0.03 μM), 7 μL of 10 μM of the sophoraflavanone G (final concentration: 0.1 μM), 2 μL of 10 μM of the sophoraflavanone G (final concentration: 0.3 μM), 7 μL of 100 μM of the sophoraflavanone G (final concentration: 1 μM) and […] of the sophoraflavanone G (final concentration: 3 μM) were accumulatively added in a liquid bath containing 10 mL of the Kreb's liquid.
Except that 6-prenylnaringenin was used in place of sophoraflavanone G, the same procedure as in Example 7 was carried out to examine effects on an L-type Ca^2+ channel.
Except that 8-prenylnaringenin was used in place of sophoraflavanone G, the same procedure as in Example 7 was carried out to examine effects on an L-type Ca^2+ channel.

[3] = HEK293, read-out: Inhibition rate (%)
[4] = NaHS 0.1 nmol/paw sole + compound 0.1 nmol/paw sole
[5] = NaHS 0.1 nmol/paw sole + compound 1 nmol/paw sole
[6] = NaHS 0.1 nmol/paw sole + compound 10 nmol/paw sole
[7] = 0.001 μM final concentration, accumulatively added, rat aorta ring
[8] = 0.003 μM final concentration, accumulatively added, rat aorta ring
[9] = 0.01 μM final concentration, accumulatively added, rat aorta ring
[10] = 0.03 μM final concentration, accumulatively added, rat aorta ring
[11] = 0.1 μM final concentration, accumulatively added, rat aorta ring
[12] = 0.3 μM final concentration, accumulatively added, rat aorta ring
[13] = 1 μM final concentration, accumulatively added, rat aorta ring
[14] = 3 μM final concentration, accumulatively added, rat aorta ring

T1 sequence (P22002 whole entry): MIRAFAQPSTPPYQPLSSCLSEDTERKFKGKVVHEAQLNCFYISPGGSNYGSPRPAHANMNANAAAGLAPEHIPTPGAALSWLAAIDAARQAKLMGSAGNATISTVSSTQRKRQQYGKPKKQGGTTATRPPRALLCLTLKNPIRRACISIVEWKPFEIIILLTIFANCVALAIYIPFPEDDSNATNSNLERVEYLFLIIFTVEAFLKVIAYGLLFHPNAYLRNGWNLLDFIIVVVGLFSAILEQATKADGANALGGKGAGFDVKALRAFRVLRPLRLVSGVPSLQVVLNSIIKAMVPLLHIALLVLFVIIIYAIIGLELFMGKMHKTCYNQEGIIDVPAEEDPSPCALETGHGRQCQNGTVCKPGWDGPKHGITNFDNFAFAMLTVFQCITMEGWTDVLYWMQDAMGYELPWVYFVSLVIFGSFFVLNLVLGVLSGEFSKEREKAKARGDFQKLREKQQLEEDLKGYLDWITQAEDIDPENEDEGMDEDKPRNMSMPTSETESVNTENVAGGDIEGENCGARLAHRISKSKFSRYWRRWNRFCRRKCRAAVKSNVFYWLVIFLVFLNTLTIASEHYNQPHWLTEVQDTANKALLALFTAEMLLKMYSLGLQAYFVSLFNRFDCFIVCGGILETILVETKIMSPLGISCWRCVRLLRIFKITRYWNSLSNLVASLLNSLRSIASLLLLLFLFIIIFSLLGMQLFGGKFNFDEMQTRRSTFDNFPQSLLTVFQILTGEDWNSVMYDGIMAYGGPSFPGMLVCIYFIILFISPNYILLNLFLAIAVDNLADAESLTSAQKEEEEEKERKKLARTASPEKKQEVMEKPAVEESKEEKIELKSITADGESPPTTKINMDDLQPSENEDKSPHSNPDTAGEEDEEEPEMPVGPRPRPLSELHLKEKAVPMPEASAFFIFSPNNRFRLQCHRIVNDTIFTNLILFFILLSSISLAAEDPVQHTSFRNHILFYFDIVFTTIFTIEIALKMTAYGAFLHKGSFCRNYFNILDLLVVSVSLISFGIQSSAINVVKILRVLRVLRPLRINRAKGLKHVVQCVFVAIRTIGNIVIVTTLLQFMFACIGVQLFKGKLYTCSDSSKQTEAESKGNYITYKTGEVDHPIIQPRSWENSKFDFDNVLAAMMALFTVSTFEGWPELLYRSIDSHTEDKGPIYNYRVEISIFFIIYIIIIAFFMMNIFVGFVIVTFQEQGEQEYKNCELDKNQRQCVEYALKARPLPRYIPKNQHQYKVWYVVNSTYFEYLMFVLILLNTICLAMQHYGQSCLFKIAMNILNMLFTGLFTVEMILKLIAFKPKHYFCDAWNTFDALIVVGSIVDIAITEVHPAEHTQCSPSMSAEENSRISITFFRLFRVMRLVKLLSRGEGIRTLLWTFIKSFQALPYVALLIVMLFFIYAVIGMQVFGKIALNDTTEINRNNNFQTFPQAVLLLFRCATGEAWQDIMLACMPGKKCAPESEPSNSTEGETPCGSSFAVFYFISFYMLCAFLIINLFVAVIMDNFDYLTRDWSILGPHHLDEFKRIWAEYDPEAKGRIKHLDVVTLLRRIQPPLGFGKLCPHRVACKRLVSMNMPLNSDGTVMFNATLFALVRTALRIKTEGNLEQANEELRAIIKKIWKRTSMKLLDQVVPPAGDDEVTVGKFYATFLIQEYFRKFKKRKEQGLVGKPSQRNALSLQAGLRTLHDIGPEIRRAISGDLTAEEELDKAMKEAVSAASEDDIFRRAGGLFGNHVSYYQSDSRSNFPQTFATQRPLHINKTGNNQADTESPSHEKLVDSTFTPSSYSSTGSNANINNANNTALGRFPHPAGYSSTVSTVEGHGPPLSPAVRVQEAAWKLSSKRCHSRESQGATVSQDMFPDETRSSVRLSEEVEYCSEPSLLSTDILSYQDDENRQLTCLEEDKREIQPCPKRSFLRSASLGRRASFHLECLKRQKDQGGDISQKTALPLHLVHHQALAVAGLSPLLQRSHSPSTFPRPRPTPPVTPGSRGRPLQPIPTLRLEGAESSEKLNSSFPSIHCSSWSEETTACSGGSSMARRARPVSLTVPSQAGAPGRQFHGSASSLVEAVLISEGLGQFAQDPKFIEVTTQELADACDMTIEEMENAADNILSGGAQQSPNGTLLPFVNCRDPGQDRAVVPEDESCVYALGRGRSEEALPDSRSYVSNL
T1 sequence (P54290 25-944 partner limits assumed): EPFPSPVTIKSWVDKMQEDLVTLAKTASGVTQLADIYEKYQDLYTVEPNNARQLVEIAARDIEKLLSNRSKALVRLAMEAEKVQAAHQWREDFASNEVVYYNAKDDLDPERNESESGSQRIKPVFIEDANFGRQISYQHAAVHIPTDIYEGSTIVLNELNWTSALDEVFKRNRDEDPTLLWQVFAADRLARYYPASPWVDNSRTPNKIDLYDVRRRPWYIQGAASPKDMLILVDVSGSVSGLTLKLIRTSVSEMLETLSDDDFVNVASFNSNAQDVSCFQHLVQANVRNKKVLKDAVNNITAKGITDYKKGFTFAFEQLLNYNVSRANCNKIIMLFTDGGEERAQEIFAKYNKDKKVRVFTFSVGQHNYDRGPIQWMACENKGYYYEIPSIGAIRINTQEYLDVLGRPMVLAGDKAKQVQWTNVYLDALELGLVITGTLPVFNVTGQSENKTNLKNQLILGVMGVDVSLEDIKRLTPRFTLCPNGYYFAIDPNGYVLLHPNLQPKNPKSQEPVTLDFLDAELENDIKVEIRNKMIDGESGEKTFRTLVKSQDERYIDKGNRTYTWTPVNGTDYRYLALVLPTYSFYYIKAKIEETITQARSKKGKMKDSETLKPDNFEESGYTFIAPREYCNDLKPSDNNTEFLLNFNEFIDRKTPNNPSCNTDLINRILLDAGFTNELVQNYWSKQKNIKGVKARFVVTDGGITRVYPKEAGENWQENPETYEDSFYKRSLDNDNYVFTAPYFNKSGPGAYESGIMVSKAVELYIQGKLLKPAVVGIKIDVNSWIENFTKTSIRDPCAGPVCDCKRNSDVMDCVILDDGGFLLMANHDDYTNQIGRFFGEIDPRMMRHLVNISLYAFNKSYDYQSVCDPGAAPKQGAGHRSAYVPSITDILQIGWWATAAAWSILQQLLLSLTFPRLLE
T1 sequence (P54290 945-1091 partner limits assumed): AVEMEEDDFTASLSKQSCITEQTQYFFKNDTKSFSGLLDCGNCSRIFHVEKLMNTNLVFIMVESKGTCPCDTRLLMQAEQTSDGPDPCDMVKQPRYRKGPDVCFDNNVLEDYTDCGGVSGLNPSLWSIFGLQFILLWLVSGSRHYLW

SMILES | inhibition at 1 µM [1, 3] [%] | inhibition at 3 µM [1, 3] [%] | Hyperalgesia threshold (g) Average value ± standard error [2, 4] [g] | Hyperalgesia threshold (g) Average value ± standard error [2, 5] [g] | Hyperalgesia threshold (g) Average value ± standard error [2, 6] [g] | Action on NaHS-induced hyperalgesia (in words) [2] | Selectivity T-type over L-type calcium channel (in words) (L-type Ca2+ channel) | Action on L-type calcium channel (in words) (L-type Ca2+ channel) | inhibition at 0.001 µM (L-type Ca2+ channel; [7]) [%] | inhibition at 0.003 µM (L-type Ca2+ channel; [8]) [%] | inhibition at 0.01 µM (L-type Ca2+ channel; [9]) [%] | inhibition at 0.03 µM (L-type Ca2+ channel; [10]) [%] | inhibition at 0.1 µM (L-type Ca2+ channel; [11]) [%] | inhibition at 0.3 µM (L-type Ca2+ channel; [12]) [%] | inhibition at 1 µM (L-type Ca2+ channel; [13]) [%] | inhibition at 3 µM (L-type Ca2+ channel; [14]) [%] | further results
CC(C)=CCc1c(O)cc2c(c1O)C(=O)C[C@@H](c1ccc(O)cc1)O2 [6-Prenylnaringenin, (2S)-5,7-dihydroxy-2,3-dihydro-2-(4-hydroxyphenyl)-6-(3-methyl-2-butenyl)-4H-1-benzopyran-4-one] | 82.7 | 99 | 0.28 ± 0.07 | 0.31 ± 0.06 | 0.52 ± 0.09 | inhibits NaHS-induced hyperalgesia | T-type calcium channel-specific inhibitor | does not act on an L-type calcium channel |  |  |  |  |  |  |  |  | inhibition at 0.3 µM [1, 3]: 0%; inhibition at 0.001 µM (L-type Ca2+ channel): 0%; inhibition at 0.003 µM (L-type Ca2+ channel): 0%; inhibition at 0.01 µM (L-type Ca2+ channel): 4.1%; inhibition at 0.03 µM (L-type Ca2+ channel): 6.1%; inhibition at 0.1 µM (L-type Ca2+ channel): 4.1%; inhibition at 0.3 µM (L-type Ca2+ channel): 4.1%; inhibition at 1 µM (L-type Ca2+ channel): 4.1%; inhibition at 3 µM (L-type Ca2+ channel): 4.1%
CC(C)=CCc1c(O)cc(O)c2c1O[C@H](c1ccc(O)cc1)CC2=O [8-Prenylnaringenin, (2S)-5,7-dihydroxy-2,3-dihydro-2-(4-hydroxyphenyl)-8-(3-methyl-2-butenyl)-4H-1-benzopyran-4-one] |  |  | 0.23 ± 0.04 | 0.41 ± 0.04 | 0.55 ± 0.05 | inhibits NaHS-induced hyperalgesia | T-type calcium channel-specific inhibitor | does not act on an L-type calcium channel | 0 | 0 | 7.4 | 0 | 11.1 | 14.8 | 22.2 | 25.9 | inhibition at 0.3 µM ([1]; HEK293, compound concentration 300 nM, T-current, HEK 293 cell expressing human T-type calcium channel, read-out: Inhibition rate (%)): 16.4%; inhibition at 1 µM ([1]; HEK293, compound concentration 1000 nM, T-current, HEK 293 cell expressing human T-type calcium channel, read-out: Inhibition rate (%)): 64.9%; inhibition at 3 µM ([1]; HEK293, compound concentration 3000 nM, T-current, HEK 293 cell expressing human T-type calcium channel, read-out: Inhibition rate (%)): 91%; inhibition at 10 µM ([1]; HEK293, compound concentration 10000 nM, T-current, HEK 293 cell expressing human T-type calcium channel, read-out: Inhibition rate (%)): 99.9%
C=C(C)[C@H](CC=C(C)C)Cc1c(O)cc(O)c2c1O[C@H](c1ccc(O)cc1O)CC2=O [Sophoraflavanone G, (2S)-5,7-dihydroxy-2,3-dihydro-2-(2,4-dihydroxyphenyl)-8-[(R)-5-methyl-2-(1-methylethenyl)-4-hexenyl]-4H-1-benzopyran-4-one] | 61.1 | 97.7 |  |  |  | inhibits NaHS-induced hyperalgesia | T-type calcium channel-specific inhibitor | does not act on an L-type calcium channel | 0 | 0 | 5.6 | 5.6 | 5.6 | 5.6 | 11.1 | 8.3 | inhibition at 0.5 µM [1, 3]: 25.9%; Hyperalgesia threshold (g) Average value ± standard error ([2]; NaHS 0.1 nmol/paw sole + compound 1 pmol/paw sole): 0.11 ± 0.04 g; Hyperalgesia threshold (g) Average value ± standard error ([2]; NaHS 0.1 nmol/paw sole + compound 10 pmol/paw sole): 0.35 ± 0.07 g; Hyperalgesia threshold (g) Average value ± standard error ([2]; NaHS 0.1 nmol/paw sole + compound 30 pmol/paw sole): 0.34 ± 0.10 g

Source: patent US10633358B2, “T-type calcium channel inhibitor” (KINKI UNIVERSITY, priority 2013, dated 2020)
